Tests used:
[1] = system: mice fed a diet enriched in trans fat, cholesterol and fructose; assay: Trans fat, cholesterol and fructose diet for 19 weeks: hepatic damage and fibrosis; format: in vivo
Procedure: Mice were fed a diet enriched in trans fat, cholesterol and fructose for 19 weeks to induce hepatic damage and metabolic dysfunction, which was assessed by histological changes in the NAS and fibrosis, measured by trichrome staining for collagen. MSDC-0602K (30 mg/kg) was given at either four weeks into the treatment or 16 weeks into the treatment as compared to the vehicle treated mice who were also on the modified diet. The results of mice who were kept on the normal diet are included for comparison. […] The signals for activation of the stellate cells and fibrosis are attenuated by treatment of the mice or isolated hepatocytes with MSDC-0602K.

[2] = system: diet-induced obese (60% HF diet) WT (fl/fl) and LS-MPC2−/− mice; assay: Single dose in diet-induced obese WT and LS-MPC2−/− mice (GTT, plasma insulin, ALT, liver qPCR); settings: for glucose tolerance (GTT): 20 h after a single gavage of 30 mg/kg, vs vehicle
[3] = system: carbonyl reductase; assay: Metabolism to the hydroxy metabolite
[4] = system: subjects with biopsy proven non-alcoholic steatohepatitis (NASH) with fibrosis and no cirrhosis; assay: EMMINENCE Phase 2b clinical trial; format: in vivo, human; settings: for Peripheral Edema Present at Baseline / Isoleucine Baseline / Leucine Baseline / TotalBCAA Baseline / Valine Baseline / Mean HbA1c at Baseline: before treatment; for Isoleucine Visit 7 / Leucine Visit 7 / TotalBCAA Visit 7 / Valine Visit 7: 12-month endpoint; for HbA1c Placebo-corrected change from Baseline at 6 months: ▾ (decrease)
Procedure: An interim analysis of the EMMINENCE Phase 2b trial was conducted in the first 328 subjects who reached their six-month follow-up visit. This study is a randomized, double-blinded study of three doses (62.5 mg 125 mg, or 250 mg) of MSDC-0602K or placebo given orally once daily to subjects with biopsy proven non-alcoholic steatohepatitis (NASH; a non-limiting example of a metabolic disorder) with fibrosis and no cirrhosis.
The subjects included in this interim analysis had significant liver disease, as established by liver biopsy, with an average NAS at baseline of 5.3. […] Overall, baseline characteristics were well-balanced across treatment groups.

[5] = system: mice on high trans-fat, fructose, cholesterol (HTF-C) diet; assay: Serum miRNA sequencing in HTF-C diet mice; format: in vivo; settings: HTF-C diet containing 331 ppm MSDC-0602K after 4 or 16 weeks of plain HTF-C diet
Procedure: To begin evaluating the exosome cargo of MSDC-0602K-treated mice, WT mice were fed with either a low fat (LF) control diet (Research Diets D09100304) or high trans-fat, fructose, cholesterol (HTF-C) diet composed of 40% trans-fat, 20% fructose, 2% cholesterol (Research Diets D09100301). A subset of mice was fed plain HTF-C diet for 4 or 16 weeks, then switched to HTF-C diet that contained 331 ppm MSDC-0602K.
Total RNA was isolated from 400 μL of serum and small RNA sequencing was performed by adapter ligation, cDNA synthesis and size selection of 145-160 base pairs. Sequencing was then performed on an Illumina HiSeq3000.

[6] = system: cell functions and key regulatory proteins; assay: Impact of MSDC-0602K vs overnutrition on cell functions and key regulatory proteins (Table 1)
[7] = 62.5 mg, N = 99, mean, baseline to 12-month endpoint
[8] = 125 mg, mean, baseline to 12-month endpoint
[9] = 250 mg, N = 101, mean, baseline to 12-month endpoint
[10] = 1-year Phase 2b dose-ranging trial, fatty liver disease with or without type 2 diabetes
[11] = all MSDC-0602K dose cohorts, interim analysis
[12] = all subjects, six months, 125 mg and 250 mg doses

COc1cccc(C(=O)COc2ccc(CC3SC(=O)NC3=O)cc2)c1 (stereo not shown) [MSDC-0602K]
signals for activation of the stellate cells and fibrosis ([1]; 30 mg/kg from week 4 or week 16 of a 19-week diet, mice or isolated hepatocytes): attenuated | high fat, high cholesterol, high sugar diet-induced metabolic dysfunction ([1]; multiple animal models): protect against | glucose tolerance (GTT) ([2]; LS-MPC2−/− mice): no improvement in glucose tolerance | plasma ALT and liver injury gene expression in LS-MPC2−/− mice ([2]; LS-MPC2−/− mice, acute treatment): refractory to the beneficial effects | glucose tolerance (GTT) ([2]; WT mice): improved glucose tolerance | plasma ALT concentrations ([2]; WT mice, single dose (FIG. 8A)): decreased plasma ALT concentrations | gene expression for hepatic stellate cell activation and fibrotic scar formation ([2]; WT mice, single dose (FIG. 8B)): decreased gene expression | plasma insulin values ([2]; both WT and LS-MPC2−/− mice, single dose 30 mg/kg): decreased | metabolism [3]: metabolized to its hydroxy metabolite (MSDC-0597) by a carbonyl reductase | Peripheral Edema Present at 6 months ([4]; 62.5 mg (n = 81)): 7.80% | Peripheral Edema Present at Baseline ([4]; 62.5 mg group (n = 81)): 13.60% | Isoleucine Visit 7 ([4]; 62.5 mg, N = 99, mean): 61.47 | Leucine Visit 7 ([4]; 62.5 mg, N = 99, mean): 114.63 | TotalBCAA Visit 7 ([4]; 62.5 mg, N = 99, mean): 397.39 | Valine Visit 7 ([4]; 62.5 mg, N = 99, mean): 221.29 | Isoleucine Change from Baseline [4, 7]: −6.58 | TotalBCAA Change from Baseline [4, 7]: −30.07 | Valine Change from Baseline [4, 7]: −16.74 | Isoleucine Baseline ([4]; 62.5 mg, N = 99, mean): 69.03 | Leucine Baseline ([4]; 62.5 mg, N = 99, mean): 121.80 | TotalBCAA Baseline ([4]; 62.5 mg, N = 99, mean): 430.03 | Valine Baseline ([4]; 62.5 mg, N = 99, mean): 239.20 | Peripheral Edema Present at 6 months ([4]; 125 mg (n = 84)): 13.50% | Peripheral Edema Present at Baseline ([4]; 125 mg group (n = 84)): 13.10% | Isoleucine Visit 7 ([4]; 125 mg, mean): 60.06 | Leucine Visit 7 ([4]; 125 mg, mean): 115.95 | TotalBCAA Visit 7 ([4]; 125 mg, mean): 399.74 | Valine Visit 7 ([4]; 125 mg, mean): 223.73 | Isoleucine Change from Baseline [4, 8]: −2.92 | Leucine Change from Baseline [4, 8]: −0.60 | TotalBCAA Change from Baseline [4, 8]: −9.61 | Isoleucine Baseline ([4]; 125 mg, mean): 62.55 | Leucine Baseline ([4]; 125 mg, mean): 115.62 | TotalBCAA Baseline ([4]; 125 mg, mean): 408.60 | Valine Baseline ([4]; 125 mg, mean): 230.43 | Peripheral Edema Present at 6 months ([4]; 250 mg (n = 85)): 11.10% | Peripheral Edema Present at Baseline ([4]; 250 mg group (n = 85)): 9.40% | Valine Visit 7 ([4]; 250 mg, N = 101, mean): 212.52 | Isoleucine Change from Baseline [4, 9]: −10.10 | Valine Change from Baseline [4, 9]: −17.15 | Isoleucine Baseline ([4]; 250 mg, N = 101, mean): 66.92 | Leucine Baseline ([4]; 250 mg, N = 101, mean): 121.54 | Valine Baseline ([4]; 250 mg, N = 101, mean): 232.15 | edema ([4]; 1-year Phase 2b dose-ranging trial): without precipitation of edema | glycemic control [4, 10]: improved glycemic control | insulin resistance [4, 10]: reduced insulin resistance | Mean HbA1c at Baseline ([4]; Type II diabetes subjects, 62.5 mg group): 7.09% | HbA1c Placebo-corrected change from Baseline at 6 months ([4]; Type II diabetes subjects, 62.5 mg, p 0.022): ▾0.37 | Mean HbA1c at Baseline ([4]; Type II diabetes subjects, 125 mg group): 6.90% | HbA1c Placebo-corrected change from Baseline at 6 months ([4]; Type II diabetes subjects, 125 mg, p 0.001): ▾0.55 | Mean HbA1c at Baseline ([4]; Type II diabetes subjects, 250 mg group): 6.97% | HbA1c Placebo-corrected change from Baseline at 6 months ([4]; Type II diabetes subjects, 250 mg, p 0.006): ▾0.45 | HbA1c ([4]; Type II diabetes subjects, all doses): statistically significant improvement | HOMA-IR [4, 11]: Statistically significant reductions | HbA1c [4, 11]: Statistically significant reductions | HOMA-IR [4, 12]: statistically significant improvements | HbA1c [4, 12]: statistically significant improvements | fasting glucose [4, 12]: statistically significant improvements | insulin levels [4, 12]: statistically significant improvements | Adiponectin ([4]; all treatment cohorts): increased significantly in all treatment cohorts in a dose dependent manner | additional biomarkers of fibrosis such as hematocrit ([4]; interim analysis): trends for improvement | alkaline phosphatase ([4]; interim analysis, six months): Improvements | bilirubin ([4]; interim analysis, six months): Improvements | gamma GT ([4]; interim analysis, six months): Improvements | lipids ([4]; overall, interim analysis): neutral effect | liver enzymes, including ALT and AST ([4]; six months compared to baseline, interim analysis): statistically significant reductions | C-Reactive Protein levels ([4]; two lowest doses): decrease | serum miRNAs altered by HTF-C diet [5]: largely corrected | Fatty acid oxidation (burning fat) [6]: Increased | HIF1α (transcription factor responding to oxygen) [6]: Decreased | Inflammation (ballooning due to injury) [6]: Decreased | Insulin sensitivity (cellular response to insulin) [6]: Increased | PPARγ, PPARα (transcription factors regulating fat metabolism and inflammation) [6]: Increased | SREBP (transcription factor regulating fat synthesis) [6]: Decreased | de novo lipid synthesis (making new fat) [6]: Decreased | mTORC1 (important nutrient sensor) [6]: Decreased
